Results as given in US9623046B2, “Amphiphilic Janus-dendrimers” (The Trustees Of The University Of Pennsylvania, priority 2009, dated 2017).
Like-named read-outs stand apart in the source and are kept apart here.

What was measured:
[1] = polymersomes and lipids (liposomes), comparison; cited from earlier work
Melittin = Melittin (Apis mellifera, UniProt P01501); conditions: Melittin 63 μL, 300 μM into 2 mL suspension
[2] = tested on: human umbilical vein endothelial cells (HUVECs); test: Cell viability, CellTiter-Blue assay; format: cell-based; conditions: CellTiter-Blue, 1, 2 and 4 h, compared to control
Protocol: Since endothelial cells are the first point of contact for intravenous drug formulations, the toxicity of the dendrosomes was evaluated in vitro on human umbilical vein endothelial cells (HUVECs). HUVECs were cultured in EGM Endothelial Growth Media (LONZA) supplemented with bovine brain extract (BBE) with heparin, h-EGF, hydrocortisone, gentamicin, amphotericin B (GA-1000), and fetal bovine serum (FBS). Cells were maintained in plastic culture flasks at 37° C. in a humidified atmosphere containing 5% CO2 and were further subcultured when the flasks were 70% to 90% confluent. The passage number of the cells for the HUVECs in vitro studies was 5-8. The investigation of toxicity of dendrosomes and viability of the cells was assessed fluorometrically by determining the number of viable cells present in multiwell plates. Cell viability was determined using the indicator dye resazurin, which is reduced by viable cells to a highly fluorescent form resorufin according to Scheme S17. […] The CellTiter-Blue Cell Viability Assay was obtained from Promega.
HUVECs were plated at a density of 3,200 cells per well (10,000 cells/cm^2) in 96 well tissue culture plates and allowed to adhere overnight. Culture media was removed from the wells and replaced with 250 μL of either: 100% media, 94% media/6% PBS buffer, 87.5% media/12.5% PBS buffer, 75% media/25% PBS buffer, 100% PBS buffer, and various concentrations of sterile dendrosomes and polymersomes ranging from 0.25 mg to 0.0625 mg in the three concentrations of media/PBS, and maintained at 37° C. in a humidified atmosphere of 5% CO2. The dendrosomes and polymersomes were prepared by film the hydration method as described in section S5.1 and extruded 25 times through 100 nm polycarbonate membrane. Dendrosomes and polymersomes were sterilized by exposing them for […] min to UV irradiation. […] The fluorescence intensity at 590 nm emanating from the wells when excited at 560 nm was then determined using a TECAN Inifinite2000 plate reader.

[3] = Micropipette aspiration of giant unilamellar dendrosomes (mechanical properties); format: physicochemical
Protocol: The elastic properties of dendrosome membranes were determined by micropipette aspiration following an analogous procedure described previously (Needham, Biophys. J. 58, 997-1009 (1990)). Giant unilamelar (˜[…] diameter) dendrosomes were prepared by Teflon film hydration as described herein and dispersed into iso-osmotic ultrapure water. Glass micropipettes with inner diameter from ˜3 μm to ˜10 μm were filled with iso-osmotic ultrapure water and connected to an aspiration station mounted on the side of a Zeiss inverted microscope, equipped with a manometer. The pipettes were used to manipulate the dendrosomes and to apply well-defined stress to the wall by inducing suction tension on their membranes.
The micropipette suction pressure is controlled in the range of microatmospheres and tenths of atmospheres (0.1 N/m^2 to 10000 N/m^2). The tension results in deformation and consequently provides direct measurements of the elastic moduli, which characterizes the membrane area expansion and bending, together with other parameter that characterize the tensile failure of the vesicle membrane according to the equations (1) and (2): Ka=Δτ/Δα (1) Es=Ka(αc)^2/2 (2) were Ka=elastic area expansion modulus; Δτ=fractional tension; τs=membrane tension at failure; Δα=fractional increase in membrane area; αc=critical areal strain-fractional increase in membrane area at failure, and Es=energy stored at failure Results are presented in the Table below.

[4] = Dynamic light scattering of dendrosomes formed by ethanol injection (size, polydispersity); format: physicochemical
Protocol: Dynamic light scattering measurements (DLS) were performed with a Malvern Instruments particle sizer (Zetasizer® Nano S, Malvern Instruments, UK).
Small unilamellar dendrosomes of <200 nm size were obtained by fast injection of 100 μL of ethanol (THF, acetone, dioxane, acetonitrile or DMSO for the solvent dependence studies) solution containing 10 mg of Janus-dendrimer dissolved in 1 mL of solvent into various volumes of milippore water (0.5 mL-5 mL) giving final Janus-dendrimer concentrations of 0.1-2 mg/mL. Dendrosomes obtained via injection method were used without further manipulation to study the influence of concentration, solvent, temperature and time on size and polydispersity by dynamic light scattering (DLS) as well as for the characterization of dendrosome morphologies via cryogenic transmission electron microscopy (cryo-TEM).
Dendrosomes were formed according to the general method discussed herein at final concentrations from 0.5-20 mg/mL. DLS measurements were carried out immediately following injection and repeated after 60 min. […] Monomodal distributions were obtained from 0.5-7 mg/mL and bimodal distributions from 10-20 mg/mL. […] At concentrations over […], multimodal size distributions and increased flocculation in time was observed.
Dendrosomes were formed according to the general method discussed herein at final concentrations of 0.5 mg/mL aqueous solution.

[5] = Miscibility of Janus-dendrimers with phospholipids (microscopy, DSC); format: physicochemical; conditions: 1:1 ratio, film hydration
[6] = concentrations of 0.5-2 mg/mL, unimodal distributions

Melittin, sequence (P01501 44-69 limits assumed): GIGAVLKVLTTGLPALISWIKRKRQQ

Compound | cell viability / toxicity [2] | Critical αc (critical areal strain) [3] | Energy stored at failure [3] [mJ/m^2] | Ka (elastic area expansion modulus) [3] [mN/m] | Lysis Tension τs [3] [mN/m] | other results
CCCCCCCCCCCCCC(=O)OC[C@H](COP(=O)([O-])OCC[N+](C)(C)C)OC(=O)CCCCCCCCCCCCC [DMPC] | – | – | – | – | – | Ka (elastic area expansion modulus) [1]: 234 mN/m
CCCCCCCC/C=C\CCCCCCCC(=O)O[C@H](COC(=O)CCCCCCCCCCCCCCCCC)COP(=O)([O-])OCC[N+](C)(C)C [SOPC, 1-Stearoyl-2-Oleoyl-Sn-Glycero-3-Phosphatidylcholine, reference compound] | – | – | – | – | – | CD signal after Melittin addition (Melittin): showed CD signal
(3,4)12G1-PE-(3,4,5)-3EO-G1-(OCH3)6 [Dendrosome 1] | excellent biocompatibility | – | – | – | – | –
(3,4)12G1-PE-BMPA-G2-(OH)8 [(3,4)12G1-PE-BMPA-(OH)8] | – | 0.04 | 0.42 | 961 | 20.4 | PDI [4, 6]: 0.07-0.2; sizes [4, 6]: 111-175 nm
(3,4,5)12G1-PE-(3,4,5)-3EO-G1-(OH)6 | excellent biocompatibility | 0.04 | 0.27 | 267.5 | 12.7 | –
(3,4,5)12G1-PE-BMPA-G2-(OH)8 [(3,4,5)12G1-PE-BMPA-(OH)8] | – | 0.06 | 0.11 | 42.44 | 0.88 | –
(3,5)12G1-PE-(3,4)-3EO-G1-(OH)4 | – | 0.06 | 0.73 | 582.5 | 15.11 | –
(3,5)12G1-PE-(3,4,5)-3EO-G1-(OCH3)6 [Dendrosome 2] | excellent biocompatibility | – | – | – | – | –
(3,5)12G1-PE-BMPA-G2-(OH)8 [(3,5)12G1-PE-BMPA-(OH)8] | – | 0.03 | 0.69 | 976 | 15.5 | CD signal after Melittin addition (Melittin): showed CD signal; Z-average size ([4]; concentration 0.5 mg/mL): 94 nm; polydispersity ([4]; concentration 0.5 mg/mL): 0.04; Z-average size ([4]; concentration 10 mg/mL): 330 nm; polydispersity ([4]; concentration 10 mg/mL): 0.17; PDI ([4]; concentration of 20 mg/mL): 0.4; sizes ([4]; concentration of 20 mg/mL): 1004 nm; sizes ([4]; concentrations of 0.5-10 mg/mL): 94-330 nm; miscibility with SOPC [5]: confirmed by DSC
DAPC | – | – | – | – | – | Critical αc (critical areal strain) [1]: 0.04; Ka (elastic area expansion modulus) [1]: 57 mN/m; Lysis Tension τs [1]: 2.3 mN/m
